{"source": "patent US6569898B2", "about": "“Use of (Z) -2-cyano-3-hydroxy-but-2-enoic acid-(4′-trifluoromethylphenyl)-amide for treating multiple sclerosis” (Aventis Pharmaceuticals Inc., priority 2001, dated 2003)", "origin": "cited, not measured here", "key": {"[1]": {"target": "dihydrooate dehydrogenase (Homo sapiens, UniProt Q02127)", "sequence (Q02127 whole entry)": "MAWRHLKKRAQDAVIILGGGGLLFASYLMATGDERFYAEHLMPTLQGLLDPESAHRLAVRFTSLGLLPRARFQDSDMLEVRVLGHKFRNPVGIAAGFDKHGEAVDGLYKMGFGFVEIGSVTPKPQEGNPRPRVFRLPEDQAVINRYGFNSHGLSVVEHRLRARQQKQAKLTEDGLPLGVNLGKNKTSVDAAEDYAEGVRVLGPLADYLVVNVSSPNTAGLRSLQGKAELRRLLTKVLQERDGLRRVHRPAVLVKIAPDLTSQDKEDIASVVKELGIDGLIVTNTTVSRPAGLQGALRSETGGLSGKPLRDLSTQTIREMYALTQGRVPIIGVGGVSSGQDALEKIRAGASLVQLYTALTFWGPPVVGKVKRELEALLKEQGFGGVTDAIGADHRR", "settings": "enzyme essential for the synthesis of pyrimidines"}, "[2]": {"test_system": "immune cells and cell lines"}}}
{"smiles": "C/C(O)=C(\\C#N)C(=O)Nc1ccc(C(F)(F)F)cc1", "note": "[Teriflunomide, (Z)-2-cyano-3-hydroxy-but-2-enoic acid-(4′-trifluoromethylphenyl)-amide]", "values": [{"measurement": "inhibition of the enzyme dihydrooate dehydrogenase", "setting": "[1]", "result": "inhibits"}, {"measurement": "antiproliferative effects on a wide variety of immune cells and cell lines", "setting": "[2]", "result": "antiproliferative effects"}]}
